The nature of series [1]: Solubility of the compound in water by HPLC analysis. It counts as physicochemical.
The subject of series [2] is MIA PaCa-2. The series can be described thus: Antitumor activity against human MIAPaCa2 cells xenografted in athymic nude mouse assessed as reduction in tumor growth at 5 mg/kg, iv administered every 7 days for 28 days. It counts as functional, organism-based.
The subject of series [3] is A549. The series can be described thus: Suppression of Rad51 expression in human A549 cells at 0.71 to 3.82 uM after 24 hrs by probing blot analysis. It counts as functional, cell-based.
Series [4] relates to HT-29. The series can be described thus: Suppression of cisplatin-induced Rad51 expression in human HT-29 cells xenografted in in-vivo model by Western blot analysis. It counts as functional, cell-based. Background: Xenograft models place foreign cells or tissue in a host animal.
For series [5], the system named is OVCAR-3. The series can be described thus: Cytostatic activity against human OVCAR3 cells assessed as reduction in cell proliferation. It counts as functional, cell-based.
For series [6], the target named is Mast/stem cell growth factor receptor Kit (Homo sapiens) (UniProt P10721). Description: Inhibition of c-Kit in human PANC1 cells assessed as reduction in Erk phosphorylation at 50 uM. It counts as cell-based.
Series [7] concerns HT-29. The series can be described thus: Suppression of ionizing radiation-induced Rad51 expression in human HT-29 cells pretreated with compound followed by ionizing radiation by Western blot analysis. It counts as functional, cell-based.
In series [8] the test system is Canis familiaris. The series can be described thus: In vivo inhibition of Rad51 expression in po dosed Beagle dog skin administered daily for 28 days measured post last dose by immunohistochemistry staining based assay. It counts as functional, organism-based. The note with it: Canis lupus familiaris.
The subject of series [9] is SBcl2. The series can be described thus: Antitumor activity against human SBcl2 cells xenografted in ip dosed athymic nude mouse assessed as reduction in tumor growth administered as qd for 5 days. It counts as functional, organism-based.
In series [10] the test system is TT. The series can be described thus: Antitumor activity against human TT cells xenografted in ip dosed athymic nude mouse assessed as reduction in tumor growth administered as qd for 2 weeks. It counts as functional, organism-based.
Series [11] deals with A549. Description: Antitumor activity against human A549 cells xenografted in athymic nude mouse assessed as reduction in tumor growth at 50 mg/kg, po qd administered for 21 days in presence of 30 mg/kg carboplatin/ 20 mg/kg taxol. It counts as functional, organism-based.
Series [12] deals with SF-767. The series can be described thus: Cytotoxicity against human SF-767 cells assessed as cell death at 1 uM after 24 hrs by MTS assay. It counts as functional, cell-based. (In general: Tetrazolium dyes change colour on reduction, which living cells bring about.)
For series [13], the system named is A549. Description: Antitumor activity against human A549 cells xenografted in athymic nude mouse assessed as reduction in tumor growth at 50 mg/kg, po qd administered for 21 days in presence of 30 mg/kg carboplatin. It counts as functional, organism-based.
Series [14] relates to MIA PaCa-2. The series can be described thus: Antitumor activity against human MIAPaCa2 cells xenografted in athymic nude mouse assessed as reduction in tumor growth at 2.5 to 5 mg/kg, iv administered every 3 days for 28 days. It counts as functional, organism-based.
The test system of series [15] is OVCAR-3. The series can be described thus: Antitumor activity against human OVCAR3 cells xenografted in po dosed athymic nude mouse assessed as reduction in tumor growth administered as qd for 28 days. It counts as functional, organism-based.
The test system of series [16] is SF-767. Description: Cytotoxicity against human SF-767 cells assessed as cell death at 1 uM in presence of […] ionizing radiation after 24 hrs by MTS assay. It counts as functional, cell-based.
Series [17] is described as follows: Solubility of the compound in PBS buffer at pH 7. It counts as physicochemical.

Usually solubility stands for the dissolved amount per volume that the medium holds. Lower therefore signals a poorly soluble substance.

Calls of active or inactive are those of the source. The rule behind the calls is not given here.

Sequence of Mast/stem cell growth factor receptor Kit (Homo sapiens) (P10721 whole entry): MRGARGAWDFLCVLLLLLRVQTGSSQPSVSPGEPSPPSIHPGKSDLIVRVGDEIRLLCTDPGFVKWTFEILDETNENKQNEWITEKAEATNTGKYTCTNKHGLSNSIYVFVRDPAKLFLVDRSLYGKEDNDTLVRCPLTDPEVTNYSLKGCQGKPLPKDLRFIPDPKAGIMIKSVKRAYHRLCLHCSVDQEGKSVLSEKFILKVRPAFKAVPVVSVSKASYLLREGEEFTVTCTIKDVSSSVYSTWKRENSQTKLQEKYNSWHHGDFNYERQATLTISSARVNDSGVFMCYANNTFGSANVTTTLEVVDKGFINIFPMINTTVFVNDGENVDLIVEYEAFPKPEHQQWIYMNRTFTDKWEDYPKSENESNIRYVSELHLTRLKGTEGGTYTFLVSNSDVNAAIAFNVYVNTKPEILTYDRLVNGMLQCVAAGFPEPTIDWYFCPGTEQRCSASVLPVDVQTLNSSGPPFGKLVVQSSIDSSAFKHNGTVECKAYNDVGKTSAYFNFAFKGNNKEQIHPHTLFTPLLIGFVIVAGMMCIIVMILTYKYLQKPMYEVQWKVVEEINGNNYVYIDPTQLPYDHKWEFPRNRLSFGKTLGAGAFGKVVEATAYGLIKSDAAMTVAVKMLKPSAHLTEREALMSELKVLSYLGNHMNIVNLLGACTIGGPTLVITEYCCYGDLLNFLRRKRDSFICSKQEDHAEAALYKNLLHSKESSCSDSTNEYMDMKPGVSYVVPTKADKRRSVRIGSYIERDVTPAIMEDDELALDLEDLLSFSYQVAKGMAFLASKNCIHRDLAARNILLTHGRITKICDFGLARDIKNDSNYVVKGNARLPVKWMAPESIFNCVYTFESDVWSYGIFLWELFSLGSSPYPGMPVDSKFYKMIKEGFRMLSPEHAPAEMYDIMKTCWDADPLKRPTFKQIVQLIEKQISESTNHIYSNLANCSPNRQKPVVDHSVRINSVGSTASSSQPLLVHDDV

For the compound `Cc1ccc(S(=O)(=O)O)cc1.S=C(NCc1ccc2c(c1)OCO2)N1CCN(c2ncnc3c2oc2ccccc23)CC1`, in [1], the solubility stood at 1.87 µg/mL.

Take `S=C(NCc1ccc2c(c1)OCO2)N1CCN(c2ncnc3c2oc2ccccc23)CC1`: the outcome in series [2], in [5], in [9], in [11], in series [12] and in [13] was Active. The result in [14] and in [16] was Active. In addition, the result in [3] was inactive. Further, the inhibition entry in series [4], in series [6] and in series [7] was “Active” in each case. The inhibition result in series [8] is “Dose-dependent effect”. Moreover, the Activity entry in [10] and in series [15] was “Dose-dependent effect” throughout.

Consider `CS(=O)(=O)O.S=C(NCc1ccc2c(c1)OCO2)N1CCN(c2ncnc3c2oc2ccccc23)CC1`, for which the solubility was determined as 2.16 µg/mL in series [17] and 5.96 µg/mL in [1].

On to `COc1cccc(-c2cc(=O)c3ccccc3o2)c1N`, for which the inhibition result in series [6] was “Active”.

The record behind these values is ChEMBL document CHEMBL3991943, “Pharmaceutical formulations comprising salts of a protein kinase inhibitor and methods of using same” (2013).
